# Assay results published in US20230093311A1, “HEAT TOLERANCE OR DRYING TOLERANCE IMPROVING AGENT, SALT TOLERANCE IMPROVING AGENT, ACTIVITY IMPROVING AGENT FOR PLANT” (priority 2020, published 2023).
# Where two headings read alike, the source gives them in different places.
# Experiments:
# [1] = tested on: Carrot (Daucus carota subsp. sativus); assay: Activation test 3 (root growth, plant size after harvest); format: in vivo; conditions: 0.24% (w/w) malic acid, 0.06% (w/w) acetic acid, or both, pH=6.0; 50 mL at root 3 times; harvest 90 days after first irrigation; Welch test
# Description: Carrot (Daucus carota subsp. sativus of the family Apiaceae) budded from seeds direct-seeded in a farm field was used.
# During the test period, each plant was watered by natural rainfall.
# 2 weeks after budding, a seedling having four to five true leaves was irrigated, at its root, with 50 mL of each testing solution. 3 weeks and 6 weeks after the initial irrigation treatment, the plant was irrigated again with 50 mL of the testing solution (irrigated a total of 3 times).
# 90 days after the first irrigation treatment, plant individuals were harvested, and aerial parts (leaf parts) were cut off to prepare edible root parts. Then, the wet weights of 100 individuals per test group were measured. Top 10% and bottom 10% of the data were removed, and the average weight and standard deviation of the plants in each test group were calculated as to the remaining 80 individuals.
# [2] = tested on: Peperomia (Peperomia albovittata); assay: Activation test 1 (induction and growth of flower buds); conditions: 50 mL at root, 24 hours: 20 mM acetic acid alone, or 20 mM acetic acid and 0.075 μM malic acid, 22° C., humidity 40%, left standing 3 weeks
# [3] = tested on: Spinach (Spinacia oleracea); assay: Activation test 2 (plant growth, plant size after harvest); format: in vivo; conditions: pH=6.0, 50 mL at root 3 times, harvest 45 days after first irrigation
# Description: Spinach (Spinacia oleracea of the family Amaranthaceae) budded from seeds direct-seeded in a farm field in a plastic greenhouse was used. During the test period, each plant was watered twice a day at 6 a.m. and 4 p.m. from an automatically controlled irrigation system. 2 weeks after budding, a seedling having three to five true leaves was irrigated, at its root, with 50 mL of each testing solution given below. 2 weeks and 4 weeks after the initial irrigation treatment, the plant was irrigated again with 50 mL of the testing solution (irrigated a total of 3 times). […] The average weight and standard deviation of the plants in each test group were calculated. […] The results of the Welch test in these and following drawings mean *: p<0.05 and **: p<0.01. The testing solutions used are as described below. Testing solutions prepared in the same way were also used in activation tests 3 to 6 given below. […] Malic acid treatment group 2: 0.24% (w/w) aqueous malic acid solution Acetic acid treatment group 2: 0.06% (w/w) aqueous acetic acid solution Treatment group 2: aqueous solution containing 0.24% (w/w) malic acid and 0.06% (w/w) acetic acid Each solution was adjusted to pH=6.0 using KOH.
# [4] = tested on: tomato (breed: Momotaro, Solanum lycopersicum); conditions: for survival rate: 50 mL at root, 24 hours: 20 mM acetic acid alone, or 10 mM acetic acid and 10 mM malic acid, then 50° C., humidity 10%, no water supply
# Description: A plant that was irrigated, at its root, with 50 mL of water and allowed to absorb it over 24 hours was assigned to water treatment group 3, and a plant that was irrigated, at its root, with 50 mL of a 20 mM aqueous acetic acid solution and allowed to absorb it over 24 hours was assigned to acetic acid treatment group 3. Also, a plant that was irrigated, at its root, with 50 mL of an aqueous solution containing 10 mM acetic acid and 10 mM malic acid and allowed to absorb it over 24 hours was assigned to treatment group 3.
# (§1) The survival rate was calculated by counting the number of stem lettuce seedlings that were not killed by firing.
# spinach = assay: Activation test 5 (maintenance of freshness and water after harvest); format: in vivo, Spinacia oleracea; conditions: 100 mL/plant at root on the day before harvest, humidity 40%
# Description: 18 hours later, the aerial part was harvested by cutting at the root with a cutter, and 5 bunches were wrapped with a piece of newspaper having the same area (30 cm×45 cm) among samples. Four types in total of test groups (20 individuals in total) including all the test groups were placed in a plastic bag (25 cm×[…]), positioned in an upright posture with the mouth of the bag opened, and stored in a refrigerator of 4° C. with a humidity of 40%. Time-dependent change in the weight of each individual was measured with a weight scale. […] The mean and standard deviation of change in the weights of 20 individuals at each time per group were determined.
# [5] = tested on: aromaticus (Plectranthus amboinicus); assay: Activation test 4 (induction of roots); conditions: cuttings dipped in 200 mL testing solution (0.06% (w/w) acetic acid, or 0.24% (w/w) malic acid and 0.06% (w/w) acetic acid, pH=6.0), raised 2 weeks
# [6] = tested on: Swamp chrysanthemum (Leucanthemum paludosum); assay: Activation test 6 (induction and growth of flower buds); format: in vivo; conditions: for number of new flower buds compared with water treatment group 6: pots dipped in 200 mL testing solution 24 hours, apical buds cut off, counted 3 weeks later, 0.24% (w/w) malic acid, 0.06% (w/w) acetic acid, or both, pH=6.0
# Text: Swamp chrysanthemum (Leucanthemum paludosum of the family Compositae) raised in a 9 cm pot was used. […] All apical buds of the plants thus treated with the solution were cut off (pinched) with scissors.
# [7] = tested on: stem lettuce (Lactuca sativa L.); conditions: humidity 40%; for survival rate: 50 mL of 10 mM aqueous acetic acid solution at root, 24 hours, then 42° C., continuous light, no water supply
# Description: A plant that was irrigated, at its root, with 50 mL of water and allowed to absorb it over 24 hours was assigned to water treatment group 1, and a plant that was irrigated, at its root, with 50 mL of a 10 mM aqueous acetic acid solution and allowed to absorb it over 24 hours was assigned to acetic acid treatment group 1.
# as §1
SMILES,significant difference in wet root weight after harvest against water treatment group 3 [1],number of flower buds after flowering that grew into 3 cm or larger ([2]; water treatment group 0),number of flower buds formed before flowering ([2]; water treatment group 3),"increase in wet weight ([3]; against water treatment group 2, 0.06% (w/w) acetic acid, or 0.24% (w/w) malic acid and 0.06% (w/w) acetic acid, 20 individuals) [%]",survival rate ([4]; still standing 3 days) [%],survival rate ([4]; still standing 4 days) [%],"ability to tolerate drying at a high temperature (order of groups) ([4]; order: acetic acid+malic acid treatment group 3, acetic acid treatment group 3, water treatment group 3)",effect of maintaining the freshness of plants after harvest (spinach; stored at 4° C.),"reduction preventing effect on decrease in water content compared with water treatment group 5 (spinach; after 96 hours at 4° C., 0.06% (w/w) acetic acid, or with 0.24% (w/w) malic acid) [%]","water retaining effect compared with water treatment group 5 and malic acid treatment group 5 (spinach; at and after 12 hours from the start of refrigeration, 4° C.)",new roots confirmed [5],new formation and formation of apical buds and flower buds ([6]; conclusion of activation test 6),number of new flower buds compared with water treatment group 6 [6],"ability of plants to tolerate drying at a high temperature ([7]; 10 mM acetic acid, 42° C., compared with water treatment group 1)",survival rate ([7]; left standing 5 days) [%],survival rate ([7]; still standing 7 days) [%],"significant difference in wet weight against water treatment group 2 ([3]; 0.24% (w/w) aqueous malic acid solution, Welch test)","significant difference in the rate of decrease in wet weight against water treatment group 5 (spinach; 0.24% (w/w) malic acid, pH=6.0, stored at 4° C.)"
CC(=O)O [acetic acid],No significant difference,0,5,122,100,0,more potentiated,effect of maintaining the freshness of plants after harvest was shown,7.1,marked water retaining effect,New roots were confirmed in neither,can promote the new formation and formation of apical buds and flower buds,increase in the number of flower buds,potentiated the ability of plants to tolerate drying at a high temperature,100,100,–,–
O=C(O)CC(O)C(=O)O (centres unmarked) [malic acid],No significant difference,–,–,–,–,–,–,–,–,–,–,–,No significant difference,–,–,–,No significant difference,No significant difference
